This is an account of results in patent publication US10487078B2, “Compositions and methods of targeting mutant K-RAS” (NantBio, Inc., priority 2015, dated 2019).

Assay [1] deals with K-ras G12D (GDP) (Homo sapiens, UniProt P01116, G12D). Kind of assay: SPR assay (surface plasmon resonance). The format is binding. The note with it: 25° C., 8% DMSO. In outline:
(§1)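 His-tagged K-ras (GDP- or GTP-bound) captured on Ni-NTA surface (4000 RU); running buffer 10 mM HEPES pH 7.4, 150 mM NaCl, 0.1% Tween-20, 1 mM MgCl2, 8% DMSO; 25° C, 50 μL/min. Compounds injected by Taylor diffusion gradient, buffer blanks double-referenced, kinetic/affinity model fitting.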

Assay [2] has as its target K-ras G12D (GTP) (Homo sapiens, UniProt P01116, G12D). The assay can be described thus: SPR assay (surface plasmon resonance). The format is binding. As to conditions: 25° C., 8% DMSO. An outline of the steps: as §1
The target of assay [3] is K-ras G12V (GTP) (Homo sapiens, UniProt P01116, G12V). The assay can be described thus: SPR assay (surface plasmon resonance). The format is binding. The note with it: 25° C., 8% DMSO. An outline of the steps: as §1
Assay [4] concerns the target K-ras wild-type (GDP) (Homo sapiens, UniProt P01116). The assay can be described thus: SPR assay (surface plasmon resonance). The note with it: 25° C., 8% DMSO. The format is binding. In outline: as §1
The target of assay [5] is K-ras wild-type (GTP) (Homo sapiens, UniProt P01116). The assay can be described thus: SPR assay (surface plasmon resonance). Type of assay: binding. As to conditions: 25° C., 8% DMSO. In outline: as §1
Assay [6] relates to Ras in BxPC-3 (K-Ras wild-type), Panc10.05 (K-Ras G12D mutant), Capan-2 (K-Ras G12V) cells. The assay can be described thus: G-LISA Ras inhibition in cancer cell lines (FIG. 2). The format is cell-based. The note with it: 3.1 to 25 μM, 1 hour, then 100 ng/ml EGF 2 minutes. The protocol:
To verify the results in specific cancer cell lines, cancer cell lines BxPC-3 (K-Ras wild-type), Panc10.05 (K-Ras G12D mutant), and Capan-2 (K-Ras G12V) were treated with 3.1 to 25 μM of Ras compound A0837 for 1 hour before stimulation with 100 ng/ml EGF for 2 minutes. Cells were washed once in ice-cold PBS, lysed in complete lysis buffer on ice, and processed by G-LISA according to Cytoskeleton protocol.

Take `Cc1nc(C)c(C(=O)Nc2nc(-c3ccc4[nH]c(=O)[nH]c4c3)cs2)s1` [Compound 4562]: the Kd came out at 0.111 mM in assay [1] and 10 mM in assay [3] (value in mM). Besides, the “SPR Assay G12D (GDP) Rmax” value in assay [1] is recorded as “Rmax = 66.0 ± 0.9”. Besides, the “SPR Assay G12D (GTP) Kd” value in assay [2] is “No binding/fit”. Besides, in assay [3], the “SPR Assay G12V (GTP) Rmax” value is given as “Rmax = 300000”. Moreover, in assay [4], the “SPR Assay Wild-type (GDP) Kd” value is given as “No”. For the same molecule, the “SPR Assay Wild-type (GTP) Kd” value in assay [5] was “No binding/fit”. The “Selectivity of Ras inhibition in cancer cell lines, G-LISA (FIG. 2)” value in assay [6] is “clear selectivity towards K-ras mutant G12D”.
